Measurements: PubChem BioAssay AID504544 (Sanford-Burnham Center for Chemical Genomics, 2011)

Tested on: S. cerevisiae tim23-1 mutant growth, luminescence
Assay: tim23-1 yeast growth suppression potency – luminescence, uHTS hits, counter-screen for tim10-1 yeast inhibitor project, dose response (AID 504544)

| Structure (SMILES) | IC50 |
| --- | --- |
| CCOc1ccccc1NC(=O)/C=C/C(N)=O | 7.36 µM |
| N/C(=N\OC(=O)c1ccc(F)cc1)c1ccc(Br)cc1 | 3.14 µM |
| O=C(Nc1cccnc1)c1cn(-c2ccccc2)nc1-c1cccs1 | 28.4 µM |
| CC(C)c1nnc(NC(=O)CCS(=O)(=O)c2nc(-c3cccs3)cc(C(F)(F)F)n2)s1 | 8.43 µM |
| Cc1cc(/C=C\c2ccc3cc(N(C)C)ccc3[n+]2C)c(C)n1-c1ccccc1 | 5.95 µM |
| COc1ccc(Br)cc1[C@H]1[C@H]2C=CC[C@@H](C)[C@@H]2C(=O)N1Cc1ccccc1 | 16.3 µM |
| CC(C)(C)OC(=O)N[C@@H](Cc1ccccc1)c1nnc(S(=O)(=O)Cc2cccc(F)c2)o1 | 2.28 µM |
| COC(=O)C(C(C)=O)C1=C/C(=N\S(=O)(=O)c2ccc(C)cc2)c2ccccc2C1=O (stereo not given) | 9.86 µM |
| CCOC(=O)c1ccc(N=c2ssnc2Cl)cc1 | 2.22 µM |
| N/C(Cc1ccc(Cl)cc1)=N\OC(=O)c1ccc2ccccc2c1 | 0.38 µM |
| CC1(CC(=O)N/N=C/c2ccc(OCc3ccc(Cl)cc3Cl)cc2)OCCCO1 | 4.3 µM |
| COc1ccc(C(=O)O/N=C(\N)c2ccc(Cl)cc2)cc1 | 7.13 µM |
| CCCCCCCCCCOC(=O)Cn1c(COc2ccccc2OC)[n+](C)c2ccccc21 | 12 µM |
| Fc1c(F)c(C(F)(F)F)c(F)c(F)c1N/N=C\c1cccs1 | 7.37 µM |
| O=C(c1ccc2c3n(nc2c1)-c1ccccc1CO3)N1CCCCC1 | 9.67 µM |
| Cc1ccc(NC(=O)c2ccc(Cl)c(N3C(=O)C=CC3=O)c2)cc1 | 4.13 µM |
| COc1ccc(Br)cc1[C@H]1[C@@H]2C=CCC[C@@]2(C)C(=O)N1Cc1ccccc1 | 14.3 µM |
| Cc1nc(Nc2ccccc2)sc1-c1ccccc1 | 29 µM |
| C[C@@H]1CC=C[C@H]2[C@H]1C(=O)N(Cc1ccccc1)[C@H]2c1ccc(-c2ccoc2)cc1F | 12.9 µM |
| O=C(/C=C/c1ccc2c(c1)OCCCO2)c1ccccc1O | 18.3 µM |
| Cc1ccc(S(=O)(=O)c2nc(S(C)(=O)=O)sc2N2CCCCC2C)cc1 (stereo not given) | 11.7 µM |
| COC(=O)c1c(N2C(=O)CC(Sc3ccccc3C(=O)O)C2=O)sc2c1CCCC2 (stereo not given) | 3.13 µM |
| Cc1cccc(NC(=O)c2ccc([N+](=O)[O-])s2)n1 | 1.55 µM |
| CC(C)NC(=S)N/N=C1\CCCCc2ccccc21 | 10.9 µM |
| CCOC(=O)/C=C/C(=O)Nc1cccc([N+](=O)[O-])c1 | 2.61 µM |
